The numbers were not newly measured in patent US6891077B2, “Fibrinogen bandages and arterial bleeding models and methods of making and using thereof” (priority 2001, dated 2005), which cites them from elsewhere.

Structures are written as SMILES.

The test system of the series is coagulation and clot formation. The following applies: incorporated in or on fibrinogen dressings or bandages.

Consider `NCCCCCC(=O)O` [ε-amino caproic acid], for which the “Effect on coagulation and clot formation as compared to fibrinogen bandages alone” value is “decreased coagulation and clot formation”.
